According to patent publication US10821078B2, “Nanostructure enhanced targeting (NSET) of inflammatory cells” (Northwestern University, priority 2016, dated 2020):
Like-named read-outs stand apart in the source and are kept apart here.

How the values were obtained:
[1] = removal from circulation in the liver; cited from earlier work
[2] = Organ-level biodistribution of ICG-loaded nanostructures by IVIS NIR fluorescence imaging; format: in vivo, mouse; conditions: 24 h after I.V. injection, C57BL/6 mice
Excerpt: Nanomaterials have been widely used to deliver therapeutic agents in vivo, and their tissue distribution can either limit or enhance such applications. ICG-loaded MC, PS and FM were therefore assembled at a 33:1 molar ratio of copolymer:dye, and their biodistributions were compared to control injections of free form ICG and PBS in naïve C57BL/6 mice. Liver, spleen, kidneys, lung and heart were harvested and investigated with an IVIS optical imaging system. Following I.V. injection, ICG usually has a half-life of less than 10 minutes primarily due to removal from circulation in the liver.
The ICG-loaded MC, PS and FM were prepared with the optimal molar ratio of PEG-bl-PPS:ICG (33:1) and suspended in PBS. Free ICG (50 μg/mL in PBS solution) served as a control. C57BL/6 mice (n=6) were injected intravenously with 150 μl of free ICG, MC, PS and FM (7.5 μg of loaded ICG in each sample). At different time points (1 h, 24 h, and 48 h post-injection), whole-body NIR fluorescence imaging was performed using an IVIS Lumina (Center for Advanced Molecular Imaging, Northwestern University) with λexc=745 nm, λem=810 nm, exposure time=2 s and f/stop=2. For organ NIR fluorescence imaging, animals were euthanized by carbon dioxide and liver, spleen, kidney, heart, and lung were harvested in petri dishes and imaged by the IVIS Lumina with the same parameters as previous.

[3] = tested on: macrophages (CD11b+F4/80+); conditions: mouse, in vivo
Method: Multi-color flow cytometry was performed to evaluate the uptake of NS of the present invention within cells of the innate and adaptive immune system. Mice were administered DyLight 650-labeled PS, MC and FM by tail vein injection. After different time points (1 h, 24 h, and 48 h), spleen, LN, liver, kidneys, and blood were collected and prepared into single cell suspensions for analysis (gating strategies shown in FIG. 11). For all organs evaluated, NS were predominantly taken up by phagocytic cells in the MPS (FIG. 3, FIG. 12).
C57BL/6 female mice (n=6-8), were injected intravenously with 150 μl of MC, PS, and FM with block copolymer concentration of 15 mg/mL. At different time points (1 h, 24 h, and 48 h post-injection), mice were anesthetized by intraperitoneal (i.p.) injection of a mixture of Ketamine/Xylazine followed by exsanguination. Blood was collected by retro-orbital puncture with BD Microtainer tubes and dipotassium EDTA (BD Biosciences). Serum was separated by centrifugation at 3000 rpm at 4° C. for 25 min. Fluorescence intensity of each nanostructure was normalized by diluting NS solutions in PBS and measuring the fluorescence using a spectrophotometer. The fluorescence of blood serum was measured with an excitation of 655 nm and the emission of 675 nm and correlated with the normalized standard curve for each DyLight 650-labeled NS. To prepare white blood cell suspensions, blood cells were washed twice with 10 ml PBS and treated 3× with ammonium-chloride-potassium (ACK) lysis buffer (Invivogen) to eliminate red blood cells. Liver, spleen, LN (popliteal, inguinal, axillary and brachial), and kidneys were harvested, gently dissociated and incubated in a 12-well plate with each well of 2 ml Collagenase D (2 mg/mL) for 45 min at 37° C. and 5% CO2. Single-cell suspensions were prepared by mechanical dissociation and passing through a 70 μm cell strainer. Anti-mouse CD16/CD32 was used to block FcRs and Zombie Aqua fixable viability dye was used to determine live/dead cells. For flow cytometric analysis, cells were stained using cocktails of fluorophore-conjugated anti-mouse antibodies: panel 1: CD45-FITC, CD3-APC/Cy7, CD4-PE, CD8α-PE/Cy7, NK1.1-PerCP-Cy5.5, CD19-Pacific Blue; panel 2: I-A/I-E-FITC, CD11c-Pacific Blue, CD8α-PE-Cy7, CD11b-PerCP-Cy5.5, CD45RB/B220-PE, Gr-1-APC-Cy7; and panel 3: F4/80-FITC, CD11c-Pacific Blue, CD11b-PerCP-Cy5.5, Ly6C-APC/Cy7, Ly6G-PE/Cy7. After washes, cells were fixed by IC cell fixation buffer (Biosciences). Flow cytometry was performed with FACSDiva on a LSRII flow cytometer (BD Biosciences) and data were analyzed with FlowJo software.

| Compound | half-life following I.V. injection [1] | ICG fluorescence in organs [2] | decrease in uptake by liver macrophages on switching from MC to PS morphology [3] | percentage of macrophages nanostructure positive [3] | percentage of macrophages nanostructure positive ([3]; iv) |
| --- | --- | --- | --- | --- | --- |
| CC1(C)C(/C=C/C=C/C=C/C=C2\N(CCCCS(=O)(=O)O)c3ccc4ccccc4c3C2(C)C)=[N+](CCCCS(=O)(=O)[O-])c2ccc3ccccc3c21 [ICG, indocyanine green] | less than 10 minutes | no observable fluorescence | – | – | – |
| PEG17-bl-PPS30 | – | – | over 50% | 40% | 30%-40% |
| PEG44-bl-PPS45 [FM] | – | – | – | 25% | – |
| PEG45-bl-PPS20 [MC] | – | – | – | over 90% | – |
